Experimental data as given in EP4678629A1, “IONIZABLE LIPID MOLECULE, PREPARATION METHOD THEREFOR AND USE THEREOF” (Maxirna (Shanghai) Pharmaceutical Co., Ltd., priority 2023, dated 2024).

What was measured:
mice = assay: In vivo transfection with Fluc-mRNA lipid nanoparticle (LNP preparation), live imaging of fluorescence intensity; conditions: 0.5 mg/kg
Procedure: According to the method described in Example II , LNP lipid nanoparticles of Fluc-mRNA (Maxirna FLuc mRNA, 1 mg/mL), SM-102 (CAS number: 2089251-47-6, A.V.T (Shanghai) Pharmaceutical Co., Ltd.), and positive control 1 (US10195156B2, it was prepared according to the method described in the above embodiment, the main difference lay in replacing 2-((3-aminopropyl)amino)ethane-1-ol with 2-((2-aminoethyl)amino)ethane-1-ol, the structure was as shown in FIG. 1) were prepared respectively. Cholesterol (Chol), DSPC, DOPE, and DMG-PEG2000 were purchased from A.V.T (Shanghai) Pharmaceutical Co., Ltd. Mice were randomly selected, and the lipid nanoparticles were injected intravenously and intramuscularly (4 mice per group) at a dosage of 0.5 mg/kg. Tris and Fluc-mRNA were directly injected as controls. After 6 hours, 200 ul of 10 mg/ml D-luciferin potassium salt was respectively injected into each mouse through the tail vein. After 10 minutes, the mice were placed under a live imaging system to observe the total fluorescence intensity of each mouse and take photos for recording. After 24 hours, the mice were placed under the live imaging system to observe the total fluorescence intensity of each mouse and take photos for recording. Table 2: Preparation parameters of each LNP
(§1) LNP lipid nanoparticles of Fluc-mRNA were respectively prepared using the method described in Example II. Mice were randomly selected, and the lipid nanoparticles were injected intramuscularly (2 mice per group) at a dosage of 0.5 mg/kg. Tris was directly injected as a control. After 6 hours, 200 ul of 10 mg/ml D-luciferin potassium salt was respectively injected into each mouse through the tail vein. After 10 minutes, the mice were placed under a live imaging system to observe the total fluorescence intensity of each mouse and take photos for recording. After 24 hours, the mice were placed under the live imaging system to observe the total fluorescence intensity of each mouse and take photos for recording. Table 3: Preparation parameters of each LNP
as §1, with “II .” for “II.”, “(3” for “(2”, “4:” for “3:”

[1] = Encapsulation efficiency of the lipid nanoparticle (eGFP mRNA) by Ribogreen method; type: physicochemical; conditions: LNP encapsulating eGFP mRNA, ionizable lipid/DOPE/cholesterol/DMG-PEG2000 50/10/48.25/1.25 mol%, N/P 12
In short: (§2)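 LNPs were made by microfluidic mixing of ionizable lipid/DOPE/cholesterol/DMG-PEG2000 (50/10/48.25/1.25 mol%) in ethanol with eGFP mRNA in 20 mM citrate pH 6.1, N/P 12, then ultrafiltered into DPBS and 0.2 µm filtered. Size and PDI by DLS at 173° backscatter; encapsulation by Ribogreen.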

DC2.4 cells = assay: In vitro transfection of cells with eGFP-mRNA lipid nanoparticle (LNP preparation), fluorescence imaging and flow cytometry; type: cell-based, mouse; conditions: DC2.4 cells, 200 ng of mRNA per well, after 24 hours; for Positive rate, %: eGFP positivity rate
In short: (§3)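 Mouse bone marrow-derived DC2.4 dendritic cells seeded at 2 × 10^5 cells/well in DMEM with 10% FBS, transfected with eGFP-mRNA LNPs the next day at 37 °C, 5% CO2. After 24 hours, viability, eGFP-positive rate and mean fluorescence intensity read by fluorescence imaging and flow cytometry.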

[2] = Size and polydispersity index (PDI) of the lipid nanoparticle by dynamic light scattering; type: physicochemical; conditions: LNP encapsulating eGFP mRNA, ionizable lipid/DOPE/cholesterol/DMG-PEG2000 50/10/48.25/1.25 mol%, N/P 12; for Particle size: in nm (unit assumed)
In short: as §2

[3] = In vitro transfection of cells with eGFP-mRNA lipid nanoparticle (LNP preparation), fluorescence imaging and flow cytometry; type: cell-based, mouse; conditions: mouse, dc2.4 cells, 200 ng of mRNA per well, after 24 hours; read-out: Cell viability, %
In short: as §3

[4] = Fluc-mRNA LNP of Table 4 (DSPC), intramuscular, 6 and 24 hours
[5] = Fluc-mRNA LNP of Table 2 (DOPE), intramuscular

| Compound | Encapsulation rate, % [1] | PDI [2] | Particle size [2] | injection site (mice; [4]) | whole-body expression (mice; [4]) | Cell viability, % (DC2.4 cells; 1440 min) | Positive rate, % (DC2.4 cells) | expression in the chest and abdomen (mice; [5]) | fluorescence intensity, intramuscular injection administration (mice; [5]) | fluorescence intensity (mice; Fluc-mRNA LNP of Table 2 (DOPE), intravenous and intramuscular injection, 6 and 24 hours) | viability at 24 h [3] |
| --- | --- | --- | --- | --- | --- | --- | --- | --- | --- | --- | --- |
| CCCCCC/C=C\COC(=O)CCCCCCCN(CCCCCCCC(=O)OC/C=C\CCCCCC)CCCN(CCCCCCCC(=O)OC/C=C\CCCCCC)CCCCCCCC(=O)OC/C=C\CCCCCC [Example 21, Tetra((Z)-non-2-en-1-yl)8,8',8",8‴-(propane-1,3-diyldi(azanetriyl))tetraoctanoate] |  |  |  |  |  |  |  | much lower than that of SM-102 | still maintain high fluorescence intensity | stronger than that of positive control 1 and comparable to SM-102 |  |
| CCCCC/C=C\C/C=C\CCCCCCCCOC(=O)CCCCCCCN(CCO)CCCN(CCCCCCCC(=O)OCCCCCCCC/C=C\C/C=C\CCCCC)CCCCCCCC(=O)OCCCCCCCC/C=C\C/C=C\CCCCC [Example 24, Di((9Z,12Z)-octadeca-9,12-dien-1-yl)8,8'-((3-((2-hydroxyethyl)(8-(((9Z,12Z)-octadeca-9,12-dien-1-yl)oxo)-8-oxooctyl)amino)propyl)azanediyl)dioctanoate] | 97.73% | 0.15 |  |  |  |  | 92.27% |  |  |  | 76% |
| CC(C)=CCC/C(C)=C/COC(=O)CCCCCCCN(CCO)CCCN(CCCCCCCC(=O)OC/C=C(\C)CCC=C(C)C)CCCCCCCC(=O)OC/C=C(\C)CCC=C(C)C [Example 3, Di((E)-3,7-dimethyloctan-2,6-dien-1-yl)8,8'-((3-((8-(((E)-3,7-dimethyloctan-2,6-dien-1-yl)oxo)-8-oxooctyl)(2-hydroxyethyl)amino)propyl)azanediyl)dioctanoate] | 95.96% | 0.12 | 92.13 |  |  |  | 93.43% |  |  |  | 68.6% |
| CCCCCCCCC(CCCCCCCC)OC(=O)CCCCCCCN(CCO)CCCN(CCCCCCCC(=O)OC(CCCCCCCC)CCCCCCCC)CCCCCCCC(=O)OC(CCCCCCCC)CCCCCCCC [Example 2, Di(heptadecane-9-yl)8,8'-((3-((8-(heptadecane-9-oxy)-8-oxooctyl)(2-hydroxyethyl)amino)propyl)azanediyl)dioctanoate] | 97.27% | 0.24 |  |  |  |  | 73.48% |  |  |  | 82.9% |
| CCCCCCCCCCCCCOC(=O)CCCCCN(CCO)CCCN(CCCCCC(=O)OCCCCCCCCCCCCC)CCCCCC(=O)OCCCCCCCCCCCCC [Example 26, Ditridecyl 6,6'-((3-((2-hydroxyethyl)(6-oxo-6-(tridecyloxy)hexyl)amino)propyl)azanediyl)dihexanoate] | 99.66% | 0.09 | 95.80 |  |  |  | 95.84% |  |  |  | 98.1% |
| CCCCCC/C=C\COC(=O)CCCCCCCCCN(CCO)CCCN(CCCCCCCCCC(=O)OC/C=C\CCCCCC)CCCCCCCCCC(=O)OC/C=C\CCCCCC [Example 15, Di((Z)-non-2-en-1-yl)10,10'-((3-((2-hydroxyethyl)(10-(((Z)-non-2-en-1-yl)oxo)-10-oxodecyl)amino)propyl)azanediyl)dicaprate] | 90.28% | 0.20 |  |  |  |  | 91.39% |  |  |  | 84.4% |

The next lines start with results.

| Encapsulation rate, % [1] | PDI [2] | Particle size [2] | Compound | injection site (mice; [4]) | whole-body expression (mice; [4]) | Cell viability, % (DC2.4 cells; 1440 min) | Positive rate, % (DC2.4 cells) | expression in the chest and abdomen (mice; [5]) | fluorescence intensity, intramuscular injection administration (mice; [5]) | fluorescence intensity (mice; Fluc-mRNA LNP of Table 2 (DOPE), intravenous and intramuscular injection, 6 and 24 hours) | viability at 24 h [3] |
| --- | --- | --- | --- | --- | --- | --- | --- | --- | --- | --- | --- |
| 94.22% | 0.09 | 96.38 | CCCCC/C=C\C/C=C\CCCCCCCCOC(=O)CCCN(CCCO)CCCCN(CCCC(=O)OCCCCCCCC/C=C\C/C=C\CCCCC)CCCC(=O)OCCCCCCCC/C=C\C/C=C\CCCCC [Example 89] | superior to those of positive control 1 and SM-102 | superior to those of positive control 1 and SM-102 | 94.0% | 92.26% |  |  |  |  |
| 85.54% |  | 85.54 | CCCCCCCCCCCOC(=O)CN(CCO)CCCN(CC(=O)OCCCCCCCCCCC)CC(=O)OCCCCCCCCCCC [Example 73, Diundecyl 2,2'-((3-((2-hydroxyethyl)(2-oxo-2-(undecyloxy)ethyl)amino)propyl)azanediyl)diacetate] |  |  |  | 97.94% |  |  |  | 84.1% |
| 99.74% | 92.91 | 99.74 | CCCCCCCCCCCOC(=O)CCCN(CCCO)CCCCN(CCCC(=O)OCCCCCCCCCCC)CCCC(=O)OCCCCCCCCCCC [Example 82, Diundecyl 4,4'-((4-((3-hydroxypropyl)(4-oxo-4-(undecyloxy)butyl)amino)butyl)azanediyl)dibutanoate] |  |  |  | 96.72% |  |  |  | 76% |
| 85.47% | 0.13 |  | CCCCCCCCCCCOC(=O)CCN(CCCCO)CCCN(CCC(=O)OCCCCCCCCCCC)CCC(=O)OCCCCCCCCCCC [Example 69, Diundecyl 3,3'-((3-((4-hydroxybutyl)(3-oxo-3-(undecyloxy)propyl)amino)propyl)azanediyl)dipropionate] |  |  |  | 97.10% |  |  |  | 91.9% |
| 99.86% | 53.66 | 99.86 | CCCCCCCCCCCCCOC(=O)CN(CCCCO)CCCN(CC(=O)OCCCCCCCCCCCCC)CC(=O)OCCCCCCCCCCCCC [Example 78, Ditridecyl 2,2'-((3-((4-hydroxybutyl)(2-oxo-2-(tridecyloxy)ethyl)amino)propyl)azanediyl)diacetate] |  |  |  | 81.35% |  |  |  | 91.7% |
| 99.77% | 0.26 | 83.85 | CCCCCCCCCCCCOC(=O)CCCCCCN(CCO)CCCN(CCCCCCC(=O)OCCCCCCCCCCCC)CCCCCCC(=O)OCCCCCCCCCCCC [Example 47, Didodecyl 7,7'-((3-((7-(dodecyloxy)-7-oxoheptyl)(2-hydroxyethyl)amino)propyl)azanediyl)diheptanoate] |  |  |  | 97.39% |  |  |  | 88.5% |
| 99.66% | 0.09 |  | CCCCCCCCCCCCCOC(=O)CCCCCN(CCCO)CCCN(CCCCCC(=O)OCCCCCCCCCCCCC)CCCCCC(=O)OCCCCCCCCCCCCC [Example 30, 6,6'-((3-((3-hydroxypropyl)(6-oxo-6-(tridecyloxy)hexyl)amino)propyl)azadiyl)ditridecyl dihexanoate] |  |  |  | 96.41% |  |  |  | 96.9% |
| 91.15% | 0.08 |  | CCCCCCCCCCCCCCOC(=O)CCCCCCCN(CCO)CCCN(CCCCCCCC(=O)OCCCCCCCCCCCCCC)CCCCCCCC(=O)OCCCCCCCCCCCCCC [Example 59, Ditetradecyl 8,8'-((3-((2-hydroxyethyl)(8-oxo-8-(tetradecyloxy)octyl)amino)propyl)azanediyl)dioctanoate] |  |  |  | 96.89% |  |  |  | 55.6% |
| 96.67% | 0.13 | 71.17 | CCCCCCCCCCCCCOC(=O)CCCCN(CCCCO)CCCN(CCCCC(=O)OCCCCCCCCCCCCC)CCCCC(=O)OCCCCCCCCCCCCC [Example 41, Ditridecyl 5,5'-((3-((4-hydroxybutyl)(5-oxo-5-(tridecyloxy)pentyl)amino)propyl)azadiyl)dipentanoate] |  |  |  | 96.42% |  |  |  | 97.2% |
